Calls of active or inactive are those of the source. The rule behind the calls is not given here.
Tests used:
LNCaP = assay: Cytotoxicity against human LNCAP cells after 24 hrs by MTT assay; assay type: functional, cell-based
PC-3 = assay: Cytotoxicity against human PC3 cells after 24 hrs by MTT assay; assay type: functional, cell-based; details: PC-3, 24 h
DU-145 = assay: Cytotoxicity against human DU145 cells after 24 hrs by MTT assay; assay type: functional, cell-based; details: DU-145, 24 h
K562 [1] = assay: Cytotoxicity against human K562 cells after 24 hrs by MTT assay; assay type: functional, cell-based; details: K562, 24 h
K562 [2] = assay: Induction of ROS production in human K562 cells at 10 uM after 3 hrs by DCF fluorescence analysis; assay type: functional, cell-based
[3] = Drug uptake in human MCF7 cell lysosomes at 20 uM after 10 mins by […] staining-based confocal microscopic analysis; assay type: ADME, Lysosome; details: mcf7, 10 min
K562 [4] = assay: Cytotoxicity against human K562 cells treated for 4 hrs followed irradiated with […] light for 1000 seconds by MTT assay; assay type: functional, cell-based; details: K562, light or radiation study

Structure (SMILES): COC1=C2c3c4c5c(c(O)cc(OC)c5c5c(OC)cc(O)c(c35)C1=O)C(=O)[C@@]1(OC)O[C@@H](C)C[C@@]41[C@H]2C(C)=O [PHAEOSPHAERIN A]
- IC50 (LNCaP): 10.8 µM
- IC50 (PC-3): 5.84 µM
- IC50 (DU-145): 10.8 µM

Structure (SMILES): COc1c2c3c4c(c(OC)c(=O)c5c(O)cc(OC)c(c6c(OC)cc(O)c(c1=O)c63)c54)[C@@H](C(C)=O)[C@@](C)(O)C2 [HYPOCRELLIN A]
- IC50 (K562 [1]): 7.47 µM
- Activity (K562 [2]): Active
- Drug uptake [3]: Active
- IC50 (K562 [4]): 0.55 µM

Structure (SMILES): COC1=C2c3c4c5c(c(O)cc(OC)c5c5c(OC)cc(O)c(c35)C1=O)C(=O)[C@@H](OC)[C@@]41C[C@H](C)O[C@]2(C(C)=O)O1 [PHAEOSPHAERIN F]
- IC50 (LNCaP): 11.8 µM
- IC50 (PC-3): 5.45 µM
- IC50 (DU-145): 16.7 µM

Structure (SMILES): COc1cccc2c1C(=O)c1c(O)c3c(c(O)c1C2=O)C[C@@](O)(C(=O)CO)C[C@@H]3O[C@H]1C[C@H](N)[C@H](O)[C@H](C)O1 [DOXORUBICIN]
- IC50 (LNCaP): 16 µM
- IC50 (PC-3): 19.5 µM
- IC50 (DU-145): 23.5 µM

Structure (SMILES): COC1=C2c3c4c5c(c(O)cc(OC)c5c5c(OC)cc(O)c(c35)C1=O)C(=O)[C@@H](OC)[C@@]41C[C@H](C)O[C@@]21C(C)=O [PHAEOSPHAERIN B]
- IC50 (LNCaP): 2.67 µM
- IC50 (PC-3): 2.42 µM
- IC50 (DU-145): 9.54 µM

Structure (SMILES): COC1=C2c3c4c5c(c(O)cc(OC)c5c5c(OC)cc(O)c(c35)C1=O)C(=O)[C@H](OC)[C@]41C[C@H](C)O[C@@]2(C(C)=O)O1 [PHAEOSPHAERIN E]
- IC50 (LNCaP): 10.1 µM
- IC50 (PC-3): 5.25 µM
- IC50 (DU-145): 16.2 µM

Structure (SMILES): COC1=C2c3c4c5c(c(O)cc(OC)c5c5c(OC)cc(O)c(c35)C1=O)C(=O)[C@@H](OC)[C@]4(CC(C)O)[C@@H]2C(C)=O (some centres undefined) [PHAEOSPHAERIN C]
- IC50 (K562 [1]): 19.5 µM
- IC50 (LNCaP): 14.3 µM
- Activity (K562 [2]): Active
- IC50 (PC-3): 6.11 µM
- Drug uptake [3]: Active
- IC50 (DU-145): 15.2 µM
- IC50 (K562 [4]): 7.08 µM

Structure (SMILES): COC1=C2c3c4c5c(c(O)cc(OC)c5c5c(OC)cc(O)c(c35)C1=O)C(=O)[C@@H](OC)[C@@]41C[C@H](C)O[C@]2(O)[C@]1(C)O [PHAEOSPHAERIN D]
- IC50 (LNCaP): 24.9 µM
- IC50 (PC-3): 9.74 µM
- IC50 (DU-145): 20.2 µM
